Several values for one entry are separate records, joined by “and”; a condition that tells them apart may be missing. Identical values can stand only once. Entries after “also recorded” stand apart in the source; their conditions may differ. Marks after values point to notes of the source that are not given here.
Experiments:
[1] = tested on: PAO-1 strains of Pseudomonas aeruginosa; experiment: Biofilm formation on contact lens (ESEM); format: cell-based; details: 340 μM in LB, 37° C., 24 hours
Method: To investigate biofilm formation on the contact lens, clinically determined PAO-1 strains of Pseudomonas aeruginosa were incubated with the lenses in either Luria-Bertani Media (LB) or LB with a final concentration of 340 μM FeQ at 37° C. for 24 hours in a non-shaking incubator. The lenses were then washed 6 times with PBS+0.05% Tween, before being stored overnight in PBS+0.05% Tween. In preparation for the ESEM, formaldehyde was added to a final concentration of 1% and incubated for 10 minutes in order to inactivate the bacteria. The lenses were then washed 4 times with PBS+0.05% Tween, and immediately before analysis the lenses were washed a further two times with distilled water.

[2] = Broiler trial: growth performance; format: in vivo, chicken (Ross 308 male broilers)
Method: (§1) A study was performed to evaluate growth promotion and reduction of Campylobater carriage using FeQ and FeTyr in Ross 308 male broilers with 7 treatment groups. Each treatment group comprised four replicates of 10 birds per pen (40 birds/treatment group and 4 pens of 10 birds/treatment group), and there were 2 control groups and 5 test groups. All the test groups and one of the control groups were exposed at day 20 of the trial to dirty litter, which tested positive for Campylobacter. This method was used to provide a more natural method to Campylobater challenge the birds. Thus there was a positive control where one treatment group was challenged with Campylobacter and one negative control group where the birds were not challenged, and five treatment groups that were all challenged with Campylobacter. The total number of birds used in the 7 treatment groups was 280. Treatment group 1 was a negative control where birds just received the commercial feed, and were not challenged with dirty litter containing Campylobacter. Treatment group 2 was the positive control where the birds received the commercial feed, and were challenged with dirty litter containing Campylobater at day 20. Treatment group 3 received 0.22 g/L of FeQ in their drinking water and 0.22 g/Kg FeQ in their feed during the entire trial, and was challenged with dirty litter containing Campylobater at day 20. Treatment group 5 received 0.22 g/L of FeQ in their drinking water during the entire trial, and was challenged with dirty litter containing Campylobater at day 20. Treatment group 6 received 0.22 g/kg FeQ in their feed during the entire trial, and was challenged with dirty litter containing Campylobater at day 20. Treatment group 7 received 0.022 g/L FeQ in their drinking water during the entire trial, and was challenged with dirty litter containing Campylobater at day 20. Treatment group 8 received 0.02 g/L FeTyr in their drinking water during the entire trial, and was challenged with dirty litter containing Campylobater at day 20. The FeTyr was pre-dissolved in DMSO, and diluted to provide a solution of 0.02 g/L of FeTyr in water. (An additional treatment group 4 was terminated due to solubility issues.)
The birds were fed with a commercial three-phase feeding program using starter, grower and finisher feeds with formulations shown in Table 2. All diets had coccidiostat (MAXIBAN® at 0.0625% in starter and […] and MONTEBAN® at 0.06% in finisher phase). Xylanase (RONOZYME® WX at 200 g per ton) and phytase (RONOZYME® P at 150 grams per ton) were added to all diets.
The feeding program is show in Table 3. The birds were reared in floor pens to day 42, and fed starter, grower and finisher feed at day 0 to 11, 11 to 24, and 24 to 42 days, respectively. All birds were weighed individually and feed weigh backs recorded per pen at day 0, 11, 21, 24 and 42 days.
Prior to challenging the chickens with dirty litter containing Campylobacter at day 20, each pen was tested for Campylobater using cloacal swabs. All pens tested negative for Campylobater prior to the challenge. At day 20, litter, which was naturally Campylobacter-contaminated was tested to confirm the presence of Campylobacter, and then added (approximately 2 kg/pen) to the litter in all pens except in pens for treatment group 1 (the negative control). At day 28, the pen litter was sampled to confirm the presence or absence of Campylobacter. At day 41 and 42, caecal samples were taken from 3 birds per pen (12 birds per treatment group) and tested for Campylobater enumeration. At day 42, digesta, fecal samples, and caecal content was taken from all birds, and pooled per pen. Two birds per pen were also taken from treatment groups 1-3, euthanized, and blood samples taken. […]

[3] = tested on: Enteropathogenic E. coli (EPEC) E2348/69; experiment: Crystal violet assay of attachment to plastic well surface; format: cell-based; details: 48 hours
Method: (§2) Enteropathogenic E. coli (EPEC) E2348/69 were grown in wells for 48 hours at 37° C. in the presence of FeQ (100 μM), and in the absence of FeQ (as control). After 48 hours, the wells were washed in order to remove suspended cells. Crystal violet was then added to each well. The wells were then washed to remove excess dye. A mixture of acetone/ethanol was then added to the wells to re-suspend any cells attached to the plastic surface of the wells, and dissolve any dye present. The presence of dye in each well was then quantified by measuring the O.D. at 570 nm.
as §2, with “FeDOPA (10-250” for “FeQ (100”, “FeDOPA” for “FeQ”

[4] = Treatment of an acne patient; format: in vivo, human
Method: A patient was treated continuously for 30 days by applying a solution of ferric quinate (340 μM) to their acne vulgarism (“acne”) once each day. Within 5 days of the start of treatment, their acne, which had not previously responded to treatment with antibiotics, began to show signs of healing.

[5] = tested on: Pseudomonas aeruginosa PAO-1; experiment: Biofilm coverage rate on glass slide; format: cell-based; details: 100 μM; 72 hours
[6] = tested on: uropathogenic Escherichia coli UPEC-536; experiment: Biofilm coverage rate on glass slide; format: cell-based; details: 0.1 μM, 1 μM, 10 μM and 100 μM; 72 hours; listed as Fe-QA
[7] = tested on: Staphylococcus aureus ATCC 25923; experiment: Biofilm formation on plastic coated UV beads; format: cell-based; details: different concentrations of Fe-QA; T=0 and T=24 h
Method: (§3) Bacteria (Enterococcus faecalis NCTC 12697, Staphylococcus epidermidis F1513 and Staphylococcus aureus ATCC 25923) were grown on Brain heart infusion (BHI) passaged to new medium either containing Fe-QA or alone. Growth suspensions were prepared at 0.0001 OD/mi and then allowed to grow at 37° C. under nounal atmospheric conditions for 24 h in BHI with plastic coated UV beads (Lascells). […], 10 μl suspension was serially diluted 10 fold to 10-3, 10-4, 10-5, 10-6, 10-7, 10-8. For each dilution, 10 μl was spotted on BHI agar plates and colonies counted after 24 h. The beads were also removed washed in PBS before adding to 1 ml PBS. After vortex mixing, 10 μl of the cell suspension was serially diluted as above and cell counts carried out.

[8] = tested on: Enterococcus faecalis NCTC 12697; experiment: Biofilm formation on plastic coated UV beads; format: cell-based; details: different concentrations of Fe-QA; T=0 and T=24 h
Method: as §3

[9] = tested on: Staphylococcus epidermidis F1513; experiment: Biofilm formation on plastic coated UV beads; format: cell-based; details: different concentrations of Fe-QA; T=0 and T=24 h
Method: as §3

Campylobacter = experiment: Broiler trial: Campylobacter carriage in droppings and caeca; format: in vivo; details: chickens challenged day 20
Method: as §1
Prior to challenging the chickens with dirty litter containing Campylobacter at day 20, each pen was tested for Campylobater using cloacal swabs. All pens tested negative for Campylobater prior to the challenge. At day 20, litter, which was naturally Campylobacter-contaminated was tested to confirm the presence of Campylobacter, and then added (approximately 2 kg/pen) to the litter in all pens except in pens for treatment group 1 (the negative control). At day 28, the pen litter was sampled to confirm the presence or absence of Campylobacter. At day 41 and 42, caecal samples were taken from 3 birds per pen (12 birds per treatment group) and tested for Campylobater enumeration. At day 42, digesta, fecal samples, and caecal content was taken from all birds, and pooled per pen. Two birds per pen were also taken from treatment groups 1-3, euthanized, and blood samples taken. Samples were analyzed for blood chemistry, including analysis for alkaline phosphatase, aspartate amino transferase, alanine amino transferase, gamma-glutamyl transferase, lactate dehydrogenase, total protein, albumin, globulin, amylase and glucose.

[10] = tested on: bacterial flora present in the mouth; experiment: Biofilm formation on extracted human teeth (CEPLAC staining); format: cell-based; details: FeQ 340 μM; 48 hours of culturing
Method: Molar teeth were extracted from human patients, and mouth swabs taken from each patient to obtain samples of each patient's bacterial flora present in the mouth. The mouth swabs were cultured in the laboratory using LB media in order to grow bacterial populations ordinarily present in the mouth of each patient. The extracted teeth were washed and brushed extensively using PBS buffer and ethanol. Each patient's tooth was then placed in the bacterial culture prepared from that patient's bacterial flora sample, and cultured aerobically for 24 hours in LB media. The teeth were then stained with CEPLAC™ (Manx Healthcare Ltd, Warwick, UK), and washed three times with PBS-Tween (50 mL) to determine if biofilm had been formed on the teeth.
All teeth stained red indicating the presence of biofilm on the teeth after just 24 hours. The same teeth were then cleaned using PBS buffer and ethanol, and the procedure repeated except with 48 hours of culturing in the presence of FeQ (340 μM).

[11] = tested on: mature EPEC-ΔcsrA biofilm; experiment: Disruption of preformed biofilm, BioFlux system; format: cell-based, E. coli; details: FeDOPA 100 μM; 20 hours
[12] = FeQ treatments 3, 5, 6, 7, FeTyr treatment 8, challenged day 20
[13] = treatment 3: 0.22 g/L FeQ in water + 0.22 g/kg FeQ in feed, challenged day 20
[14] = treatment 5: 0.22 g/L FeQ in water, challenged day 20
[15] = treatment 6: 0.22 g/kg FeQ in feed, challenged day 20
[16] = treatment 7: 0.022 g/L FeQ in water, challenged day 20

O=C([O-])C1(O)CC(O)C(O)C(O)C1.O=C([O-])C1(O)CC(O)C(O)C(O)C1.O=C([O-])C1(O)CC(O)C(O)C(O)C1.[Fe+3] (stereo not drawn) [FeQ, ferric quinate]
biofilm formation on contact lens (ESEM images) [1]: inhibits biofilm formation
MFCR (mortality adjusted feed conversion ratio) 0-20 ([2]; FeQ groups 3, 5, 6, 7 pooled, absence of Campylobacter challenge): 1.2996
MFCR at day 42 versus positive control [2, 12]: positive effect on MFCR
average body weight at day 42 versus positive control [2, 12]: positive effect on growth
ABW (average body weight) Day 0 [2, 13]: 0.040 kg
MFCR (mortality adjusted feed conversion ratio) Day 0-11 [2, 13]: 1.181^ab
MFCR (mortality adjusted feed conversion ratio) Day 0-42 [2, 13]: 1.595
ABW (average body weight) Day 0 [2, 14]: 0.040 kg
MFCR (mortality adjusted feed conversion ratio) Day 0-11 [2, 14]: 1.210^ab
MFCR (mortality adjusted feed conversion ratio) Day 0-42 [2, 14]: 1.560
ABW (average body weight) Day 0 [2, 15]: 0.041 kg
AFD (average feed intake) Day 0-11 [2, 15]: 0.360 kg
AWG (average weight gain) Day 0-11 [2, 15]: 0.310 kg
AWG (average weight gain) Day 11-20 [2, 15]: 0.640 kg
MFCR (mortality adjusted feed conversion ratio) Day 0-11 [2, 15]: 1.168^a
MFCR (mortality adjusted feed conversion ratio) Day 0-42 [2, 15]: 1.563 and 1,563
ABW (average body weight) Day 0 [2, 16]: 0.040 kg
MFCR (mortality adjusted feed conversion ratio) Day 0-11 [2, 16]: 1.236^b
MFCR (mortality adjusted feed conversion ratio) Day 0-42 [2, 16]: 1.612
attachment of EPEC cells to plastic well surface (crystal violet O.D. at 570 nm) ([3]; FeQ 100 μM): little or no attachment of bacterial cells to the surface and no biofilm formation
acne outcome after treatment for 30 days ([4]; solution 340 μM applied once each day): completely healed
recurrence of acne after discontinuation of treatment for over one year ([4]; solution 340 μM applied once each day for 30 days): did not recur
time to first signs of healing of acne ([4]; solution 340 μM applied once each day, patient): ≤ 5 days
biofilm formation (coverage rate on glass slide) [5]: inhibits the formation of biofilm
biofilm formation (coverage rate on glass slide) [6]: inhibits founation of biofilm; also recorded: inhibits the formation of biofilm
biofilm formation on plastic coated UV beads [7]: inhibited S. aureus biofilm formation
biofilm formation on plastic coated UV beads [8]: inhibited E. faecalis biofilm formation
biofilm formation on plastic coated UV beads [9]: inhibited S. epidermidis biofilm formation
average Campylobacter cfu/g of caeca samples at day 42 versus positive control (Campylobacter; FeQ treatments 3, 5, 6, 7, FeTyr treatment 8): lower levels of Campylobacter in their caeca; also recorded: positive effect on reducing Campylobacter infection of poultry
Campylobacter cfu/g of bird droppings at day 42 versus positive control (Campylobacter; FeQ treatments 3, 6, 7, FeTyr treatment 8): positive effect on reducing Campylobacter infection of poultry
Campylobacter colony forming units per gram of bird droppings at day 42 (Campylobacter; treatment 3: 0.22 g/L FeQ in water + 0.22 g/kg FeQ in feed): 4,860 cfu/g
Campylobacter colony forming units per gram of bird droppings at day 42 (Campylobacter; treatment 6: 0.22 g/kg FeQ in feed): 12,800 cfu/g
Campylobacter colony forming units per gram of bird droppings at day 42 (Campylobacter; treatment 7: 0.022 g/L FeQ in water): 900,000 cfu/g
biofilm on teeth (red CEPLAC staining) [10]: no teeth stained red

Fe(DOPA)3 [FeDOPA]
attachment of EPEC cells to plastic well surface (crystal violet O.D. at 570 nm) ([3]; FeDOPA 68-250 μM): attachment of bacterial cells to the surface and biofilm formation is inhibited
dispersion of mature biofilm [11]: dispersed the biofilm

Reference: patent US9975914B2, “Antimicrobial preparation and uses thereof” (Akeso Biomedical, Inc., priority 2015, dated 2018)
